Activity data for one compound are collected here from ChEMBL document CHEMBL5678818, “Discovery of potent SOS1 inhibitors that block RAS activation via disruption of the RAS-SOS1 interaction” (Proc Natl Acad Sci U S A, 2019).

Experiment [1] deals with Mast/stem cell growth factor receptor Kit (Homo sapiens), P10721 [V559D,T670I]. Briefly: Inhibition of KIT V559D/T670I mutant (unknown origin) assessed as residual activity at 100 nM by KINOMEscan analysis relative to control.
For experiment [2], the target named is T1, Phosphatidylinositol 4,5-bisphosphate 3-kinase catalytic subunit delta isoform (Homo sapiens) (UniProt O00329).
T1 sequence (whole entry): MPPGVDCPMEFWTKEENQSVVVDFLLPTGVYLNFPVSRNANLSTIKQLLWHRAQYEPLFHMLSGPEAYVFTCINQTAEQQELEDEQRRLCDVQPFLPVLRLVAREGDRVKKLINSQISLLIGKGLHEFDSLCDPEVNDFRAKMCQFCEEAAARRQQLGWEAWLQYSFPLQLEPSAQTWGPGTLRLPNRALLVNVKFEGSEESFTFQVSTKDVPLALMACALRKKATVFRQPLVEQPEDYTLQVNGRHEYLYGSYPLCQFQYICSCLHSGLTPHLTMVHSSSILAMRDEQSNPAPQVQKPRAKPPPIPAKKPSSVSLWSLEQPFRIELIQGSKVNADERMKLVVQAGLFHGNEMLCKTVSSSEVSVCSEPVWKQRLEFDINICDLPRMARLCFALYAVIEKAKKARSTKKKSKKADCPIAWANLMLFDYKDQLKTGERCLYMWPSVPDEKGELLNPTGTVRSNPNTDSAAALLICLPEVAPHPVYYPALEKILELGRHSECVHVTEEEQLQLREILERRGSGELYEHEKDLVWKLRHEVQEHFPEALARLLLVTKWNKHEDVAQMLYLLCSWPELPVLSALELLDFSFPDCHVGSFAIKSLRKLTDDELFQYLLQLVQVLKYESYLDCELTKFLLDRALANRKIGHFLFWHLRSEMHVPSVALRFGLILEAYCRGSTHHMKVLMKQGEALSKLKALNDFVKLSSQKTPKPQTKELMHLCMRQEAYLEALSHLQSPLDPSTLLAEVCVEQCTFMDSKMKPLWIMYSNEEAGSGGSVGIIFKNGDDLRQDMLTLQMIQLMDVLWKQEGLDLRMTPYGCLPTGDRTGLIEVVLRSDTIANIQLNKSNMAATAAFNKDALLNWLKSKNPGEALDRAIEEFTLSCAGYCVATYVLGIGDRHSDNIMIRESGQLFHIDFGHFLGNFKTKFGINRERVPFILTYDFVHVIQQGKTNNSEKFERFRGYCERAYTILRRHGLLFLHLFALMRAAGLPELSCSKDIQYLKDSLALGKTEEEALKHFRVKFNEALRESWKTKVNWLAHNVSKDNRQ
Nature of the experiment: Inhibition of PIK3CD (unknown origin) assessed as residual activity at 100 nM by KINOMEscan analysis relative to control.

Experiment [3] addresses T2, Ephrin type-A receptor 3 (Homo sapiens) (UniProt P29320).
T2 sequence (whole entry): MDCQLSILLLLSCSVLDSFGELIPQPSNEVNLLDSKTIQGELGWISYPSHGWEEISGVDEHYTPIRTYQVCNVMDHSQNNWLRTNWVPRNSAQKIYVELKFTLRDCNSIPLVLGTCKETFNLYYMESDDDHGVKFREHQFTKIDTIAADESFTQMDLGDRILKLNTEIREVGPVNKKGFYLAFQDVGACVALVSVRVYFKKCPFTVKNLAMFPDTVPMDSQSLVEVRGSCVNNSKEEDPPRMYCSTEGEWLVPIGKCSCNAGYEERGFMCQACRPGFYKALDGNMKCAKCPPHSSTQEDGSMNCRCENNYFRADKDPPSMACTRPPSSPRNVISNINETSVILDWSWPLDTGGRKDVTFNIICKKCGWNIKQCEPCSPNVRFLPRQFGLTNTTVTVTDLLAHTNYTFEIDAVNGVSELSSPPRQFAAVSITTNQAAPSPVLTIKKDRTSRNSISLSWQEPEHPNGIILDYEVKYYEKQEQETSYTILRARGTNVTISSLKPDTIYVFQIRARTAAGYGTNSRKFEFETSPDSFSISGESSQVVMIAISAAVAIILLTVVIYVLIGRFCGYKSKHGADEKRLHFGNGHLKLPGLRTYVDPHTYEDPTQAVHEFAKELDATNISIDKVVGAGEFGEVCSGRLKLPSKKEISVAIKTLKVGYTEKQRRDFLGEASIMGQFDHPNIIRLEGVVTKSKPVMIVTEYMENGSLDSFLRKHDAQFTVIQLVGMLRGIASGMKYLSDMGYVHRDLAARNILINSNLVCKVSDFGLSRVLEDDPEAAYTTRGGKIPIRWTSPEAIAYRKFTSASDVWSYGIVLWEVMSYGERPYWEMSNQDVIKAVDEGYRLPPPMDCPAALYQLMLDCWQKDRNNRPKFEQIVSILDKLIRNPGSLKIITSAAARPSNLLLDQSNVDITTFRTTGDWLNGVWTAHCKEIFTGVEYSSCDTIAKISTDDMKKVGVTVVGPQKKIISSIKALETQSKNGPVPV
Briefly: Inhibition of EPHA3 (unknown origin) assessed as residual activity at 100 nM by KINOMEscan analysis relative to control.

The target in experiment [4] is T3, Muscle, skeletal receptor tyrosine-protein kinase (Homo sapiens) (UniProt O15146).
T3 sequence (whole entry): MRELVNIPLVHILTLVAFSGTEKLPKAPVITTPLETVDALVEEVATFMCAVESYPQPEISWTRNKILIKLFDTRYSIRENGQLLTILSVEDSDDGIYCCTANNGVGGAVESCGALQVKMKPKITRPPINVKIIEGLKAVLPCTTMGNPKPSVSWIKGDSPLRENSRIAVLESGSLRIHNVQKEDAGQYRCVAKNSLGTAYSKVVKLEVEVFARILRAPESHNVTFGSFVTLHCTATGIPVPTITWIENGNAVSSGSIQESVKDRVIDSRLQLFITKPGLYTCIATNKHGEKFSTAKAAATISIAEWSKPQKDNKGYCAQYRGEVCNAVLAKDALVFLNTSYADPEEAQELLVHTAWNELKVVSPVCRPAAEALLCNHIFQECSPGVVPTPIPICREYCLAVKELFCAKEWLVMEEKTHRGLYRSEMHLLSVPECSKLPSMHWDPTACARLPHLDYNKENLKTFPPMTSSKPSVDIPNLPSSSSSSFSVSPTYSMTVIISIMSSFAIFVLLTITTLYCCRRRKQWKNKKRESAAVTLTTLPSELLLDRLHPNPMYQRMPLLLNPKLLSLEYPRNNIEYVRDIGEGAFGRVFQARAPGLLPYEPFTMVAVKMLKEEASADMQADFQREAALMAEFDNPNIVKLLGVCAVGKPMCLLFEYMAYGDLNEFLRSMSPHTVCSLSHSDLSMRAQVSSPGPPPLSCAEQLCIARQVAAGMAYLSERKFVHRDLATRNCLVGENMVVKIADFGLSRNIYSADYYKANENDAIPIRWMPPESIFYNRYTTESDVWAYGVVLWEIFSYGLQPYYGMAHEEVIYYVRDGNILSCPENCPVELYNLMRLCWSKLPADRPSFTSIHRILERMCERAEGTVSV
Nature of the experiment: Inhibition of MUSK (unknown origin) assessed as residual activity at 100 nM by KINOMEscan analysis relative to control.

Each structure is given as a SMILES string.

Chain of Mast/stem cell growth factor receptor Kit (Homo sapiens), P10721 [V559D,T670I] (P10721 whole entry V559D/T670I, canonical isoform): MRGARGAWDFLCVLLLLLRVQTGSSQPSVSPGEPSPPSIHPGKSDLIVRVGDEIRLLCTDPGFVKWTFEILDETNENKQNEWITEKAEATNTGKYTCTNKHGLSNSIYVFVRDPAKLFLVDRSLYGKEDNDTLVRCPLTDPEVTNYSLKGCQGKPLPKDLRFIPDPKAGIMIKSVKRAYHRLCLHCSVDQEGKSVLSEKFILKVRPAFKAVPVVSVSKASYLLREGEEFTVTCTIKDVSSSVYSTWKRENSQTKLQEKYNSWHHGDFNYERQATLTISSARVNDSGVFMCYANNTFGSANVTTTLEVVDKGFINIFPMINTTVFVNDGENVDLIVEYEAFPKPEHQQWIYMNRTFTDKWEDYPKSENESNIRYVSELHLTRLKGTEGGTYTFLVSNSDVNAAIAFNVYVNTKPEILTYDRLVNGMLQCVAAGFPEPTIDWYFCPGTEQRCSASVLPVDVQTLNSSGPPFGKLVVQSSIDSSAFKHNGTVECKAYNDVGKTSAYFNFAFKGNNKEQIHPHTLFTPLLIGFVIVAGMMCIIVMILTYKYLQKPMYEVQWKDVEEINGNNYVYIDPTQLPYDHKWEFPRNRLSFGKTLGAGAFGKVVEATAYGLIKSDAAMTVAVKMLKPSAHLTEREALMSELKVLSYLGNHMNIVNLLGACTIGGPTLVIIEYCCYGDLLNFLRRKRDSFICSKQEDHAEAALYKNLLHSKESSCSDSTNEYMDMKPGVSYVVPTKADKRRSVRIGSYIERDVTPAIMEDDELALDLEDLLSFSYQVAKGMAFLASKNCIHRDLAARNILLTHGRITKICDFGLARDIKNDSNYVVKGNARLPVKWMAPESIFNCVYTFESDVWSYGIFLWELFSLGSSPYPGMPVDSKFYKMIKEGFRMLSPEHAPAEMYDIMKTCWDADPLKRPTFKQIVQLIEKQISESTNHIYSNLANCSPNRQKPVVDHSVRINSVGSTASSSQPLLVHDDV

Consider `COc1cc2ncnc(N[C@H](C)c3cccc4ccccc34)c2cc1OC`, for which the Activity in experiment [1] was 92%; in experiment [2] it was 87%; in experiment [3], 81%; in experiment [4], 98%.
